Reference: patent US8618068B2, “Methods and low dose regimens for treating red blood cell disorders” (priority 2009, dated 2013)
Marks after values point to notes of the source that are not given here.

Assays:
[1] = tested on: β- and γ-globin gene promoters; test: Double-luciferase reporter assay of γ-globin expression in GM979 cells; type: cell-based, murine
Excerpt: DMB was compared to arginine butyrate (AB) for its ability to induce y-globin expression in a double-luciferase reporter assay in murine erythroleukemia (GM979) cells transfected with the pLCR linked to the β- and γ-globin gene promoters linked to a different luciferase gene.

[2] = Phase 2 trial in thalassemia intermedia patients, safety; type: in vivo, human
Method: (§1) A randomized, doubled blind, placebo-controlled, multiple ascending dose Phase I/II trial was conducted in 21 adult patients with beta thalassemia intermedia, including 14 patients with HbE/β^0 thalassemia from Thailand and 7 patients with β^+/β^0 thalassemia (including 12 different beta globin gene mutations). Study medication was taken as a single daily dose of DMB for 8 weeks followed minimally by a 4 week break and follow-up period. Four ascending dose levels (10, 20, 30, and 40 mg/kg/day) were sequentially evaluated in 4 dose level cohorts after the preceding dose and schedule were determined safe by an independent and unblinded Safety Monitoring Committee.
(§2) All treatment groups had two placebo patients; placebo patients in the first dose group were randomized to treatment in the second dose group. Ten patients in Thailand (all HbE type) were treated with 10 mg/kg (8 active/2 placebo) followed by eight patients in Thailand who were treated followed by 30 mg/kg (6 active/2 placebo). Eleven patients (4 That, 7 Lebanese) were treated with 20 mg/kg followed by 40 mg/kg (9 active [6 Lebanese/3 That]/2 placebo). Patients ranged in age from 17 to 49 with a median age of 31 and were comprised for 16 females and 5 males.
(§3) Patients were monitored every 2 weeks for laboratory studies, physical examinations, and adverse events. Further, patients were followed for hematologic parameters primarily focusing on hemoglobin and fetal hemoglobin (HbF). In addition, pharmacokinetic samples were obtained on Day 0 and 13, at pre-dose and 2, 4, 6, 8, 12, and 24 hours post-dosing. Hemoglobin was measured at each site using standard hematology equipment. HbF was measured using Varian HPLC. […] Adverse events in treated subjects included headache, upper respiratory infection, pyrexia, fatigue, nausea, and dizziness, but the rates of such events were not markedly different from those observed in the placebo-treated subjects.

γ globin chain = γ globin chain protein synthesis in anemic baboons; type: in vivo; conditions: mean of three animals
Method: Expression of γ-globin and erythroid cell production was evaluated in a primate model in which baboons are phlebotomized on a daily basis to simulate the chronic RBC destruction associated with hemoglobinopathies. In this model, baboons, aged 2 to 3 years, had 2.5 to 7 mL/kg of blood withdrawn daily, and the volume replaced with an identical volume of normal saline. Hemoglobin levels were lowered relative to control levels, but were maintained between 6.5 to 7.5 g/dL, the level necessary for the modulation of globin genes in this animal species. The animals were supplemented with iron dextran and folic acid. The phlebotomy regimen effectively exchanged the animals' total blood volume every 10 to 20 days.
Globin chain protein synthesis was measured in DMB treated animals using ^3H-leucine-labeled reticulocytes before and 2 and 4 days after treatment. Complete blood counts and reticulocyte counts were monitored 3 times per week and plasma concentrations of the test article was determined. DMB was administered intravenously (IV, daily) or orally via nasogastric gavage under light anesthesia (on 3 alternating days per week for up to 6 weeks), on a dose-escalation schedule with starting doses of 500 to 800 mg/kg. If γ globin induction was observed, lower doses (40-200 mg/kg) were tested. Recombinant human erythropoietin (rhu-EPO) was also administered in separate treatment courses to 2 baboons at doses of 300 U/kg three times per week subcutaneously as a positive control for the erythropoietic effects of DMB. Treatments were performed in individual baboons.
Induction of γ globin chain expression was evaluated by measuring γ globin protein synthesis.

[3] = tested on: E. coli tester strain WP2uvrA; test: Ames reverse bacterial mutagenicity test; conditions: with and without S9 mix
Method: (§4) The standard battery of in vitro genetic toxicity tests were conducted with DMB. These tests were conducted with positive and vehicle controls, with and without metabolic activation, as appropriate, and in accordance with accepted guidelines.
(§5) For the Ames (reverse bacterial mutagenicity test), the tester strains used in the mutagenicity assay were S. typhimurium tester strains TA98, TA100, TA1535, and TA1537 and E. coli tester strain WP2uvrA. The assay was conducted in both the presence and absence of S9 mix along with concurrent vehicle and positive controls using three plates per dose.

[4] = tested on: S. typhimurium tester strains TA98, TA100, TA1535, and TA1537; test: Ames reverse bacterial mutagenicity test; conditions: with and without S9 mix
Method: as §4, §5

[5] = Cardiovascular and hemodynamic effects, 28-Day Beagle dog study; type: in vivo, Beagle dogs
Method: Cardiovascular safety pharmacology assessments included an in vitro screen to evaluate the effects of DMB on cardiac ion channel and an in vivo evaluation of cardiovascular and hemodynamic effects in Beagle dogs. Electrophysiologic effects were evaluated in laboratory studies utilizing voltage-clamped human embryonic kidney cells transformed by adenovirus cDNA and transfected with cDNA in order to stably express the human ether a-go-go related gene (hERG). The effect on cellular hERG channels was evaluated at DMB concentrations up to 1 mM (138 μg/mL).

fetal hemoglobin (HbF) = test: Phase 2 trial in thalassemia intermedia patients, HbF and total hemoglobin; type: in vivo, human
Method: as §1, §2, §3

For `CCC(C)(C)C(=O)[O-].[Na+]` [DMB, Sodium 2,2-dimethylbutyrate], the “Mean Fold Increase” value ([1]; 0.5 mM, compared to untreated controls, p ≦ 0.01) was 2.2*, the “γ/(γ + β) globin Expression, Range” value ([1]; Active Concentration 0.5 mM) was 0.033-0.052 and the Dizziness ([2]; 10 mg/kg) was 2 (25) n (%). The Fatigue ([2]; 10 mg/kg) was 1 (13) n (%), the Headache ([2]; 10 mg/kg) was 5 (63) n (%) and the Nausea ([2]; 10 mg/kg) was 0 n (%). For the same compound, the Pyrexia ([2]; 10 mg/kg) was 3 (38) n (%), the “Serious adverse event: Palpitations” value ([2]; 10 mg/kg) was 1 (13) 10 mg/kg n (%) and the “Treatment Related? (Palpitations)” value ([2]; 10 mg/kg) was “Not related to treatment”. The “Upper Respiratory Tract Infection” value ([2]; 10 mg/kg) was 5 (63) n (%), the “subjects who discontinued study medication due to anemia” value ([2]; 10 mg/kg, considered not related to study medication) was “Two” and the Dizziness ([2]; 20 mg/kg) was 2 (22) n (%). The Fatigue ([2]; 20 mg/kg) was 0 n (%), the Headache ([2]; 20 mg/kg) was 3 (33) n (%) and the Nausea ([2]; 20 mg/kg) was 2 (22) n (%). The Pyrexia ([2]; 20 mg/kg) was 0 n (%), the “Serious adverse event: Suprapubic Pain” value ([2]; 20 mg/kg) was 1 (11) 20 mg/kg n (%) and the “Treatment Related? (Suprapubic Pain)” value ([2]; 20 mg/kg) was “Unlikely related”. The “Upper Respiratory Tract Infection” value ([2]; 20 mg/kg) was 2 (22) n (%), the Dizziness ([2]; 30 mg/kg) was 0 n (%) and the Fatigue ([2]; 30 mg/kg) was 0 n (%). For the same compound, the Headache ([2]; 30 mg/kg) was 2 (33) n (%), the Nausea ([2]; 30 mg/kg) was 0 n (%) and the Pyrexia ([2]; 30 mg/kg) was 2 (33) n (%). The “Upper Respiratory Tract Infection” value ([2]; 30 mg/kg) was 1 (17) n (%), the Dizziness ([2]; 40 mg/kg) was 1 (11) n (%) and the Fatigue ([2]; 40 mg/kg) was 4 (44) n (%). The Headache ([2]; 40 mg/kg) was 1 (11) n (%), the Nausea ([2]; 40 mg/kg) was 3 (33) n (%) and the Pyrexia ([2]; 40 mg/kg) was 1 (11) n (%). For the same compound, the “Serious adverse event: Gastritis” value ([2]; 40 mg/kg) was 1 (11) 40 mg/kg n (%), the “Treatment Related? (Gastritis)” value ([2]; 40 mg/kg) was “Not related to treatment” and the “Upper Respiratory Tract Infection” value ([2]; 40 mg/kg) was 1 (11) n (%). For the same compound, the tolerability ([2]; 10 to 40 mg/kg/day, 8 weeks) was “well tolerated”, the “Serious adverse event: Gastroenteritis” value ([2]; HQK-1001 groups) was 0 n (%) and the “Serious adverse event: Upper Respiratory Infection” value ([2]; HQK-1001 groups) was 0 n (%). For the same compound, the “Increase % γ Globin Chain Synthesis” value (γ globin chain) was 6.6%, the “Increase Fold (γ globin chain synthesis)” value (γ globin chain) was 2.9 and the “% γ Globin Chain Synthesis, Treatment” value (γ globin chain; baseline 3.4) was 10.0%. For the same compound, the “cytotoxicity (background lawn growth)” value [3] was “no cytotoxicity was observed”, the mutation counts ([3]; up to 5000 per plate) was “No increase in mutation counts” and the “cytotoxicity (background lawn growth)” value [4] was “no cytotoxicity was observed”. The mutation counts ([4]; up to 5000 per plate) was “No increase in mutation counts”, the “QTc prolongation, average” value ([5]; 500 mg/kg/day, female Beagle dogs only, not statistically different from baseline (p>0.05)) was 14% and the “effects on systemic hemodynamics” value ([5]; 28-Day study) was “No effects”. For the same compound, the “patients in whom total hemoglobin increased” value (fetal hemoglobin (HbF); 20 mg/kg group) was 2 out of 9, the “dose level with the largest increase in HbF” value (fetal hemoglobin (HbF); Day 55) was 20 mg/kg and the “change in HbF at Day 55” value (fetal hemoglobin (HbF); all 4 DMB dose groups, compared to minimal change in placebo) was “median increases”. The “Median change from baseline to Day 55 in total hemoglobin” value (fetal hemoglobin (HbF); all groups including placebo) was “decreases”.
